Assay results from publication PMC10754118, “Lipophilic Nucleoside Triphosphate Prodrugs of Anti‐HIV Active Nucleoside Analogs as Potential Antiviral Compounds” (Advanced Science, 2023).
Like-named read-outs stand apart in the source and are kept apart here.

Legend:
[1] = in vitro; conditions: human, CEM/0 cells (wild-type CD4+ T-cells)
Method: All TriPPPro‐compounds 10 and 20, as well as their parent nucleosides and the corresponding NTPs, were evaluated for their antiviral activity (expressed as EC50 values) against HIV‐1 (wild‐type CEM/0 cells) and HIV‐2 (wild‐type CEM/0 cells and thymidine kinase‐deficient (CEM/TK^−) cells) with concomitant determination of cytotoxicity in the same cell line (Table 3 ).

[2] = in vitro; conditions: human
Method: The hydrolysis properties of TriPPPro‐compounds 10 and 20 were evaluated in phosphate buffer saline (PBS, pH 7.3), pig liver esterase (PLE) or CEM/0 cell extracts. In both cases, hydrolysis products were analyzed by means of analytical RP18‐HPLC and the hydrolysis half‐lives (Table 1 , t1/2 ) of TriPPPro‐compounds 10 and 20 were calculated after complete consumption of the starting materials.
The hydrolysis of TriPPPro‐compounds 10 and 20 was carried out with CEM/0 cell extracts as well. […]
Part 6. Enzyme-Catalyzed Hydrolysis of TriPPPro-compounds 10 and 20 in CEM Cell […]
First prepare 3.0 mM hydrolysis solutions of Tri PPPro-compounds 10 and 20 in DMSO and H2O: 21 µL stock solution (50 mM in DMSO) and 154 µL DMSO, and 175 µL Milli-Q water. Three-twelve different samples (20 µL 3.0 mM hydrolysis solutions) were prepared in 2 mL Eppendorf® vials. Then, aliquots of 50 µL human CEM cell extracts were added to these samples and the reaction was started. The samples were incubated at 37 °C in a thermomixer for different time periods. The reaction was stopped by addition of 150 µL MeOH and kept on ice for 5 min. After centrifugation at 14,000 rpm for 12 min, the supernatants were filtered (Chromafil RC-20/15 MS, 0.2 μm) and stored in liquid nitrogen. When testing, aliquots of 60 µL (injection volume) were analyzed by analytical HPLC (HPLC Method). The calculation of t1/2 was obtained using Origin again.
(§1) Part 7. Hydrolysis of TriPPPro-compounds 10 and 20 in human plasma.
µL 3.0 mM hydrolysis solutions) were prepared in 2 mL Eppendorf® vials.

[3] = test system: HIV‐1 [HE]; assay: Anti-HIV activity, HIV-1 in wild-type CEM/0 cells; assay type: cell-based; conditions: Human immunodeficiency virus 1, CCRF-CEM, read-out: Antiviral activity CEM/0 HIV‐1 [HE] EC50
[4] = test system: HIV‐2 [ROD]; assay: Anti-HIV activity, HIV-2 in wild-type CEM/0 cells; assay type: cell-based; conditions: Human immunodeficiency virus 2, CCRF-CEM, read-out: Antiviral activity CEM/0 HIV‐2 [ROD] EC50
Method: (§2) Part 9. Anti-HIV activity assay.
(§3) The produce was used as previously reported. 5 Inhibition of HIV-1(IIIB)- and HIV-2(ROD)-induced cytopathogenicity in wild-type CEM/0 and thymidine kinase-deficient CEM/TK– cell cultures was measured in […]
(§4) containing appropriate dilutions of the test compounds. After 4−5 days of incubation at 37 °C in a CO2-controlled humidified atmosphere, CEM giant (syncytium) cell formation was examined microscopically. The […]
(§5) giant cell formation by 50%.
(§6) Part 10. Primer-extension assays. […]

[5] = test system: pig liver esterase (PLE); assay: Hydrolysis with pig liver esterase (PLE); assay type: in vitro ADME; conditions: pig liver esterase (PLE) in PBS, PLE in PBS pH 7.3, 37 °C, read-out: PLE t 1/2 (converted)
From the text: Next, TriPPPro‐compounds 10 and 20 were exposed to PLE in PBS (pH 7.3) and the half‐lives of TriPPPro‐compounds 10 and 20 are listed in Table 1. […] In contrast, the cleavage of the AB (C4) masking group in TriPPPro‐compounds 10by–hy and 10bz–hz was triggered by ester hydrolysis and yielded the corresponding γ‐alkylated nucleoside triphosphate derivatives 20 (Figure 3B,D) and 21 (Figures S17 and S18, Supporting Information), respectively. […] Moreover, a very small amount of NDPs was observed, probably due to a reaction involving a nucleophilic reaction at the γ‐phosphate or γ‐phosphonate moiety (pathways d and f, Scheme 5). […]
(§7) Part 4. Chemical Hydrolysis of TriPPPro-compounds 10 and 20.
Second prepare 1.9 mM hydrolysis
Part 5. Hydrolysis of TriPPPro-compounds 10 and 20 with PLE .
Second, 125 µL DMSO and 833 µL
62.5 µL of PLE solution in PBS (100
mixture was stored in the freezer (- 30 °C).
by analytical HPLC (HPLC Method).
similar to that for the chemical hydrolysis studies. […]
(§8) Then, aliquots of 50 µL human

[6] = Chemical hydrolysis in phosphate buffer saline (PBS, pH 7.3); assay type: physicochemical; conditions: PBS pH 7.3, 37 °C, read-out: PBS pH 7.3 t 1/2 (converted)
Method: as §7
Second prepare 1.9 mM hydrolysis […]
as §8

[7] = test system: HIV‐2 [ROD)]; assay: Anti-HIV activity, HIV-2 in thymidine kinase-deficient CEM/TK^− cells; assay type: cell-based
Method: as §2, §3, §4, §5, §6

[8] = in vitro; conditions: for half-life at 0.86 mM: human, plasma
Method: First prepare 50 mM solutions of TriPPPro-compounds 10 and 20 in DMSO. […]
First prepare 3.0 mM hydrolysis solutions of Tri PPPro-compounds 10 and 20 in DMSO and H2O: 21 µL stock solution (50 mM in DMSO) and 154 µL DMSO, and 175 µL Milli-Q water. Three-twelve different samples (20 […]
The calculation of t1/2 was obtained using Origin again.
as §1
µL 3.0 mM hydrolysis solutions) were prepared in 2 mL Eppendorf® vials. Then, aliquots of 50 µL human Plasma (Heparin or Citrate) were added to these samples and the reaction was started. The samples were […]
incubated at 37 °C in a thermomixer for different time periods. The reaction was stopped by addition of 150 µL MeOH and kept on ice for 5 min. After centrifugation at 14,000 rpm for 22 min, the supernatants were filtered (Chromafil RC-20/15 MS, 0.2 μm) and stored in liquid nitrogen. When testing, aliquots of 25 0r 30 µL (injection volume) were analyzed by analytical HPLC (HPLC Method). The calculation of t1/2 was obtained using Origin […]
Part 8. Preparation of cell extracts and human plasma. […]

[9] = wild-type CEM/0 cells, mean ±SD n = 2–3
[10] = Human immunodeficiency virus 2, CEM-TK(-), thymidine kinase-deficient CEM/TK^− cells, mean ±SD n = 2–3; read-out: Antiviral activity CEM/TK^− HIV‐2 [ROD)] EC50

SMILES	CC50 [1] [µM]	half-life at 0.86 mM [2] [min]	EC50 [3] [nM]	EC50 [4] [nM]	half-life at 0.45 mM [5] [min]	half-life at 1.9 mM [6] [days]	EC50 ([7]; Human immunodeficiency virus 2, CEM-TK(-), read-out: Antiviral activity CEM/TK^− HIV‐2 [ROD)] EC50) [nM]	EC50 [3, 9] [nM]	EC50 [4, 9] [nM]	EC50 [7, 10] [nM]	half-life at 0.86 mM ([8]; Plasma (Citrate) t 1/2) [min]	half-life at 0.86 mM ([8]; Plasma (Heparin) t 1/2) [min]	half-life at 0.86 mM ([8]; t 1/2 in human plasma (over heparin and citrate plasma)) [min]	Plasma (Citrate) t 1/2 ([8]; citrate-stabilized human plasma, 37 °C) [h]	Plasma (Heparin) t 1/2 ([8]; heparin-stabilized human plasma, 37 °C) [h]	t 1/2 in human plasma (over heparin and citrate plasma) ([8]; human plasma 37 °C, heparin and citrate taken together) [h]
CCCCCCCCCCCCCCCCCCP(=O)(OCCCC)OP(=O)(O)OP(=O)(O)OC[C@H]1O[C@@H](n2cc(C)c(=O)[nH]c2=O)C[C@@H]1N=[N+]=[N-] (some centres unmarked) [10bx]	> 100	> 1200	120 ± 88	31 ± 5	> 9000	> 62.5	1190 ± 790									
CCCCCCCCCCCCCCCCCCOP(=O)(OCCCC)OP(=O)(O)OP(=O)(O)OC[C@@H]1O[C@H](n2cc(F)c(N)nc2=O)CS1 (some centres unmarked) [10cv, γ‐(C4;C18)‐FTCTP]	51.2 ± 7.7	> 600			> 9000	> 83.3		39 ± 35	74 ± 27	3.2						
CCCCCCCCCCCCCCCCCCOP(=O)(OCc1ccc(OC(=O)CCCC)cc1)OP(=O)(O)OP(=O)(O)OC[C@@H]1O[C@H](n2cc(F)c(N)nc2=O)CS1 (some centres unmarked) [10cy, γ‐(AB‐C4;alkyl‐C18)‐FTCTP]	51.9	204			14.4	10.5		140 ± 65	180 ± 150	62 ± 59						
CCCCCCCCCCCCCCCCCCOP(=O)(OCCCC)OP(=O)(O)OP(=O)(O)OC[C@H]1O[C@@H](n2cc(Cl)c(=O)[nH]c2=O)C[C@@H]1F (some centres unmarked) [10dv]	50.1 ± 10.2	> 1200			> 9000	> 83.3		2280 ± 680	4810 ± 4610	> 20000						
CCCCCCCCCCCCCCCCCCOP(=O)(OCc1ccc(OC(=O)CCCC)cc1)OP(=O)(O)OP(=O)(O)OC[C@H]1O[C@@H](n2cc(Cl)c(=O)[nH]c2=O)C[C@@H]1F (some centres unmarked) [10dy]	52.1	174			11.4	18.5		7320 ± 2280	1950 ± 860	2530 ± 1380						
CCCCCCCCCCCCCCCCCCP(=O)(OCc1ccc(OC(=O)CCCC)cc1)OP(=O)(O)OP(=O)(O)OC[C@H]1O[C@@H](n2cc(Cl)c(=O)[nH]c2=O)C[C@@H]1F (some centres unmarked) [10dz]	54.9	> 600			78	27.9		2020 ± 800	510 ± 140	4660 ± 3420						
CCCCCCCCCCCCCCCCCCOP(=O)(OCCCC)OP(=O)(O)OP(=O)(O)OC[C@H]1O[C@@H](n2cc(/C=C/Br)c(=O)[nH]c2=O)C[C@@H]1O (some centres unmarked) [10gv]	48 ± 4.2	> 600			> 9000	> 83.3		> 10000	5370 ± 690	36400 ± 34700						
CCCCCCCCCCCCCCCCCCOP(=O)(OCc1ccc(OC(=O)CCCC)cc1)OP(=O)(O)OP(=O)(O)OC[C@H]1O[C@@H](n2cc(/C=C/Br)c(=O)[nH]c2=O)C[C@@H]1O (some centres unmarked) [10gy]	52.1				18	25		8570 ± 5020	2870 ± 1720	11100 ± 1340						
CCCCCCCCCCCCCCCCCCOP(=O)(OCc1ccc(OC(=O)CCCC)cc1)OP(=O)(O)OP(=O)(O)OC[C@@H]1C=C[C@H](n2cnc3c(NC4CC4)nc(N)nc32)C1 (some centres unmarked) [10hy]	> 100	78			58.2	1.92		960 ± 490	290 ± 160	210 ± 110						
Cc1cn([C@H]2C[C@H](N=[N+]=[N-])[C@@H](COP(=O)(O)OP(=O)(O)O)O2)c(=O)[nH]c1=O [AZTDP, reference compound]											384	168	168 to 384			
Cc1cn([C@H]2C[C@H](N=[N+]=[N-])[C@@H](COP(=O)(O)O)O2)c(=O)[nH]c1=O [AZTMP, reference compound]														4.5	2.0	2.0 to 4.5
